Experimental data published in US11696913B2, “Prolonged ectoparasite-controlling agent for animal” (MITSUI CHEMICALS AGRO, INC., priority 2017, dated 2023).
Where two headings read alike, the source gives them in different places.

Assays:
Ctenocephalides felis [1] = test: In vitro contact test with fleas; details: read-out: insecticidal activity; for pest or weed control at 0.2 µg/cm2, 0.2 µg/cm2: dose 0.2 μg/cm^2, dead or moribund fleas after 48 h; for pest or weed control at 1 µg/cm2, 1 µg/cm2: dose 1 μg/cm^2, dead or moribund fleas after 48 h
In short: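 Activity is the percentage of fleas dead or moribund at 48 h, judged by immobility or uncoordinated movement after tapping. Tubes were coated by evaporating acetone solutions (900 ppm gives 5 μg/cm^2), then held 5-10 adult fleas of both sexes at room temperature and ambient humidity.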

Ixodes ricinus = test: In vitro contact test with adult hard ticks (Ixodes ricinus); details: read-out: acaricidal activity; for pest or weed control at 5 µg/cm2, 5 µg/cm2: dose 5 μg/cm^2, 48 h
Protocol: In Vitro Contact Tests with Adult Hard Ticks
In vitro contact tests with ticks were conducted with adult males and females of Rhipicephalus sanguineus, Ixodes ricinus, or Dermacentor variabilis, or nymphs of Amblyomma americanum.
For the coating of the test vials, the test substance was dissolved and diluted in acetone p.a. to the desired concentration. The solution was then homogeneously applied to the inner wall and base of a glass vial by turning and rocking on an orbital shaker until complete evaporation of the solvent. For example, with a 900 ppm solution of test substance, an area-based dose of 5 μg/cm^2 was achieved.
After the solvent was completely evaporated, 5-10 adult ticks were put in each coated test vial, which was then sealed with a perforated plastic lid and incubated in a horizontal position in the dark at room temperature and ambient humidity (Rhipicephalus sanguineus) or in a climate-controlled cabinet (Ixodes ricinus, Dermacentor variabilis, Amblyomma americanum [21° C., 85% rel. hum.]). Acaricidal activity against the respective tick species was determined after 48 h. For this, ticks were collected to the base of the test vial by gentle knocking, and test vials were then incubated on a hotplate at 45-50° C. for no longer than 5 min. Ticks which remained motionless on the base of the test vial or moved uncoordinated without deliberately climbing up to avoid the heat were considered dead or moribund, respectively.
A substance was judged to have good acaricidal activity against the respective tick species when at least 80% of ticks were found dead or moribund at a dose of the substance of g/cm^2. An acaricidal activity of 100% means all ticks were dead or moribund. An acaricidal activity of 0% means none of the ticks was found dead or moribund.

Ctenocephalides felis [2] = test: Ctenocephalides felis in-vitro feeding test with fleas (CTECFE oral); details: 48 hours, read-out: insecticidal feeding activity; for pest or weed control at 0.032 ppm: dose 0.032 ppm in citrated cattle blood; for pest or weed control at 0.16 ppm: dose 0.16 ppm in citrated cattle blood; for pest or weed control at 0.8 ppm: dose 0.8 ppm in citrated cattle blood; for pest or weed control at 4 ppm: dose 4 ppm in citrated cattle blood
In short: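 Scored as percent fleas killed (0–100%) 48 hours after feeding began. Compound, dissolved in DMSO and diluted into citrated cattle blood, was offered via a parafilm membrane to roughly 20 adult male and female C. felis at about 37° C.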

Laodelphax striatellus = test: Insecticidal testing against small brown planthopper; format: in vivo; details: 144 h, concentration 100 ppm, sprayed rice seedlings, after 6 days, read-out: pesticidal rate
In short: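 Acetone solution of compound at a set concentration sprayed onto rice seedlings, air-dried, then exposed to 10 planthoppers (one group). Held at 25° C; survival rate recorded after 6 days.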

Amblyomma americanum = test: In vitro contact test with hard ticks (Amblyomma americanum nymphs); details: read-out: acaricidal activity; for pest or weed control at 0.2 µg/cm2, 0.2 µg/cm2: dose 0.2 μg/cm^2, 48 h; for pest or weed control at 1 µg/cm2, 1 µg/cm2: dose 1 μg/cm^2, 48 h
In short: (§1)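 Acaricidal activity = % ticks dead or moribund after 48 h contact with acetone-deposited compound on vial walls (e.g., 900 ppm solution → 5 μg/cm^2). Ambient conditions for R. sanguineus, 21° C./85% rel. hum. for other species; heat challenge at 45-50° C. separated climbers from moribund ticks.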

Spodoptera litura = test: Insecticidal testing against common cutworm; format: in vivo; details: foliar, 144 h, concentration 100 ppm, cabbage leaf dip, second-stage larvae, after 6 days, read-out: pesticidal rate
Excerpt: Insecticidal Testing Against Common Cutworm (Spodoptera litura)

[3] = tested on: Rhipicephalus (Boophilus) microplus; test: In vitro injection test with Rhipicephalus (Boophilus) microplus (BOOPMI Inj); details: 168 h, laid fertile eggs after 7 days, read-out: acaricidal activity; for pest or weed control at 32 ng: dose 0.032 μg/animal injected; for pest or weed control at 0.00016 mg: dose 0.16 μg/animal injected; for pest or weed control at 0.0008 mg: dose 0.8 μg/animal injected
In short: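 Five engorged adult females each get a 1 μl abdominal injection of compound dissolved and diluted in DMSO. Kept 7 days at 28° C./85% rel. hum.; percent activity rates egg laying and egg fertility (0% all fertile, 100% none laid or infertile).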

Plutella xylostella = test: Insecticidal testing against diamondback moth; format: in vivo; details: foliar, 144 h, concentration 100 ppm, cabbage leaf dip, third-stage larvae, after 6 days, read-out: pesticidal rate
Excerpt: Insecticidal Testing Against Diamondback Moth (Plutella xylostella)

Rhipicephalus sanguineus = test: In vitro contact test with adult hard ticks (Rhipicephalus sanguineus); details: read-out: acaricidal activity; for pest or weed control at 1 µg/cm2, 1 µg/cm2: dose 1 μg/cm^2, 48 h; for pest or weed control at 0.2 µg/cm2, 0.2 µg/cm2: dose 0.2 μg/cm^2, 48 h; for pest or weed control at 0.04 µg/cm2, 0.04 µg/cm2: dose 0.04 μg/cm^2, 48 h
In short: as §1

Dermacentor variabilis = test: In vitro contact test with adult hard ticks (Dermacentor variabilis); details: read-out: acaricidal activity; for pest or weed control at 0.2 µg/cm2, 0.2 µg/cm2: dose 0.2 μg/cm^2, 48 h; for pest or weed control at 1 µg/cm2, 1 µg/cm2: dose 1 μg/cm^2, 48 h
In short: as §1

| Structure (SMILES) | pest or weed control at 0.2 µg/cm2, 0.2 µg/cm2 (Ctenocephalides felis [1]) [%] | pest or weed control at 1 µg/cm2, 1 µg/cm2 (Ctenocephalides felis [1]) [%] | pest or weed control at 0.032 ppm (Ctenocephalides felis [2]) [%] | pest or weed control at 0.16 ppm (Ctenocephalides felis [2]) [%] | pest or weed control at 0.8 ppm (Ctenocephalides felis [2]) [%] | pest or weed control at 4 ppm (Ctenocephalides felis [2]) [%] | pest or weed control at 100 ppm (Laodelphax striatellus) [%] | pest or weed control at 0.2 µg/cm2, 0.2 µg/cm2 (Amblyomma americanum) [%] | pest or weed control at 1 µg/cm2, 1 µg/cm2 (Amblyomma americanum) [%] | pest or weed control at 100 ppm (Spodoptera litura) [%] | pest or weed control at 32 ng [3] [%] | pest or weed control at 0.00016 mg [3] [%] | pest or weed control at 0.0008 mg [3] [%] | pest or weed control at 100 ppm (Plutella xylostella) [%] | pest or weed control at 1 µg/cm2, 1 µg/cm2 (Rhipicephalus sanguineus) [%] | pest or weed control at 1 µg/cm2, 1 µg/cm2 (Ixodes ricinus; dose 1 μg/cm^2, 48 h) [%] | pest or weed control at 5 µg/cm2, 5 µg/cm2 (Ixodes ricinus) [%] | pest or weed control at 0.2 µg/cm2, 0.2 µg/cm2 (Dermacentor variabilis) [%] | pest or weed control at 1 µg/cm2, 1 µg/cm2 (Dermacentor variabilis) [%] | pest or weed control at 0.2 µg/cm2, 0.2 µg/cm2 (Rhipicephalus sanguineus) [%] | other results |
| --- | --- | --- | --- | --- | --- | --- | --- | --- | --- | --- | --- | --- | --- | --- | --- | --- | --- | --- | --- | --- | --- |
| O=C(Nc1cccc(C(=O)Nc2c(I)cc(C(F)(C(F)(F)F)C(F)(F)F)cc2C(F)(F)F)c1F)c1ccc(F)nc1 [Compound 116, 6-fluoro-N-(2-fluoro-3-((2-iodo-4-(perfluoropropan-2-yl)-6-(trifluoromethyl)phenyl)carbamoyl)phenyl)nicotinamide] | 95 | 95 | 95 | 95 | 95 | 95 | ≥ 70 | 90 | 90 | ≥ 70 | 100 | 100 | 100 | ≥ 70 | 90 |  |  |  |  |  | pest or weed control at 0.04 µg/cm2, 0.04 µg/cm2 (Ctenocephalides felis [1]; dose 0.04 μg/cm^2, dead or moribund fleas after 48 h): 95%; pest or weed control at 0.2 µg/cm2, 0.2 µg/cm2 (Ixodes ricinus; 48 h): 90%; pest or weed control at 1 µg/cm2, 1 µg/cm2 (Ixodes ricinus; 48 h): 90%; pest or weed control at 0.0064 ppm (Ctenocephalides felis [2]; dose 0.0064 ppm in citrated cattle blood): 95% |
| O=C(Nc1cccc(C(=O)Nc2c(I)cc(C(F)(C(F)(F)F)C(F)(F)F)cc2C(F)(F)F)c1F)c1ccc(F)cc1 [Compound 63] |  | 95 | 95 | 95 | 95 | 95 | ≥ 70 |  |  | ≥ 70 |  | 100 | 100 | ≥ 70 | 90 | 90 | 90 | 90 | 90 | 90 | pest or weed control at 0.2 µg/cm2, 0.2 µg/cm2 (Ixodes ricinus; dose 0.2 μg/cm^2, 48 h): 90% |
| O=C(Nc1cccc(C(=O)Nc2c(I)cc(C(F)(C(F)(F)F)C(F)(F)F)cc2OC(F)(F)F)c1F)c1ccc(C(F)(F)F)nc1 [Compound 118, N-(2-fluoro-3-((2-iodo-4-(perfluoropropan-2-yl)-6-(trifluoromethoxy)phenyl)carbamoyl)phenyl)-6-(trifluoromethyl)nicotinamide] | 95 | 95 | 95 | 95 | 95 | 95 | ≥ 70 | 90 | 90 | ≥ 70 | 100 | 100 | 100 | ≥ 70 | 90 | 90 | 90 |  |  | 90 | pest or weed control at 0.2 µg/cm2, 0.2 µg/cm2 (Ixodes ricinus; dose 0.2 μg/cm^2, 48 h): 90% |
| O=C(Nc1cccc(C(=O)Nc2c(I)cc(C(F)(C(F)(F)F)C(F)(F)F)cc2[S+]([O-])C(F)(F)F)c1F)c1ccc(F)cc1 (stereo not drawn) [Compound 65] | 95 | 95 | 95 | 95 | 95 | 95 | ≥ 70 | 90 | 90 | ≥ 70 |  | 100 | 100 | ≥ 70 | 90 | 90 | 90 |  |  | 90 |  |
| CN(C(=O)c1ccc(F)cc1)c1cccc(C(=O)Nc2c(Br)cc(C(F)(C(F)(F)F)C(F)(F)F)cc2OC(F)(F)F)c1F [Compound 72] | 95 | 95 |  |  | 95 | 95 | ≥ 70 |  |  | ≥ 70 | 100 | 100 | 100 | ≥ 70 | 90 | 90 | 90 | 90 | 90 | 90 | pest or weed control at 0.2 µg/cm2, 0.2 µg/cm2 (Ixodes ricinus; dose 0.2 μg/cm^2, 48 h): 90%; pest or weed control at 0.04 µg/cm2, 0.04 µg/cm2 (Rhipicephalus sanguineus): 90% |
| O=C(Nc1cccc(C(=O)Nc2c(I)cc(C(F)(C(F)(F)F)C(F)(F)F)cc2C(F)(F)F)c1F)c1ccc(Cl)c(Cl)c1 [Compound 80] |  |  | 95 | 95 | 95 | 95 | ≥ 70 |  |  | ≥ 70 |  |  | 100 | ≥ 70 | 90 |  | 90 | 90 | 90 |  |  |
| O=C(Nc1cccc(C(=O)Nc2c(Br)cc(C(F)(C(F)(F)F)C(F)(F)F)cc2OC(F)(F)F)c1F)c1ccc(C(F)(F)F)nc1 [Compound 99, N-(2-fluoro-3-((2-bromo-4-(perfluoropropan-2-yl)-6-(trifluoromethoxy)phenyl)carbamoyl)phenyl)-6-(trifluoromethyl)nicotinamide] |  |  |  | 95 | 95 | 95 | ≥ 70 |  |  | ≥ 70 |  | 100 | 100 | ≥ 70 | 90 | 90 |  | 90 | 90 | 90 |  |
| CN(C(=O)c1ccc(F)cc1)c1cccc(C(=O)Nc2c(Cl)cc(C(F)(C(F)(F)F)C(F)(F)F)cc2C(F)(F)F)c1F [Compound 68] | 95 | 95 | 95 | 95 | 95 | 95 | ≥ 70 |  |  | ≥ 70 |  | 100 | 100 | ≥ 70 | 90 | 90 | 90 |  | 90 | 90 | pest or weed control at 0.04 µg/cm2, 0.04 µg/cm2 (Rhipicephalus sanguineus): 90% |
